A value given as a limit tells only on which side of the number the result lay.

One assay deals with Hedgehog signalling pathway. Put plainly: Gli-reporter NIH3T3 luciferase assay (Hedgehog pathway inhibition). Format: cell-based. The following applies: NIH3T3; Gli-reporter NIH-3T3 cells, recombinant mouse sonic hedgehog, 24 hours, luminescence; read-out: Category (Hedgehog pathway inhibition activity, IC50). The method in brief:
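Mouse NIH3T3 cells with Gli-responsive luciferase reporter, pre-treated 1 h with compound (top final concentration 1 μM, 0.1% DMSO) in 0.5% calf serum medium. Then stimulated with recombinant mouse sonic hedgehog for 24 h at 37° C. Luminescence read-out (OneGLO), triplicates; IC50 reported.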
For the compound `CN(Cc1ccccc1)C1CCN(c2nnc(-c3ccnn3C)c3ccccc23)CC1` [Example 59, N-benzyl-N-methyl-1-[4-(2-methylpyrazol-3-yl)phthalazin-1-yl]piperidin-4-amine], the IC50 (in general, the concentration that gives 50% inhibition) was in the range of 10 to 200 nM.
For the compound `CN(Cc1ccc(F)cc1C(F)(F)F)C1CCN(c2nnc(-c3ccnn3C)c3ccccc23)CC1` [Example 78, N-[[4-fluoro-2-(trifluoromethyl)phenyl]methyl]-N-methyl-1-[4-(2-methylpyrazol-3-yl)phthalazin-1-yl]piperidin-4-amine], the concentration for half-maximal inhibition (IC50) was under 10 nM.
For the compound `Cn1nccc1-c1nnc(N2CCC(NC(=O)Nc3ccc(C(F)(F)F)cc3)CC2)c2ccccc12` [Example 14, 1-[1-[4-(2-methylpyrazol-3-yl)phthalazin-1-yl]-4-piperidyl]-3-[4-(trifluoromethyl)phenyl]urea], the IC50 was under 10 nM.
Same read-out and setting: the same measure for `CN(Cc1ccccc1F)C1CCN(c2nnc(-c3ccnn3C)c3ccccc23)CC1` [Example 64, (2-fluorophenyl)methyl-methyl-[1-[4-(2-methylpyrazol-3-yl)phthalazin-1-yl]-4-piperidyl]ammonium]: 10 to 200 nM; for `Cn1nccc1-c1nnc(N2CCC(NCc3ccc(OC(F)(F)F)cc3)CC2)c2ccccc12` [Example 20, 1-[4-(2-methylpyrazol-3-yl)phthalazin-1-yl]-N-[[4-(trifluoromethoxy)phenyl]methyl]piperidin-4-amine]: 10 to 200 nM; for `COc1ccccc1CN(C)C1CCN(c2nnc(-c3ccnn3C)c3ccccc23)CC1` [Example 61, N-[(2-methoxyphenyl)methyl]-N-methyl-1-[4-(2-methylpyrazol-3-yl)phthalazin-1-yl]piperidin-4-amine]: 200 to 2000 nM.
For the compound `Cn1nccc1-c1nnc(N2CCC(NCc3ccccc3F)CC2)c2ccccc12` [Example 72, N-[(2-fluorophenyl)methyl]-1-[4-(2-methylpyrazol-3-yl)phthalazin-1-yl]piperidin-4-amine], the half-maximal inhibitory concentration (IC50) lay within 10 to 200 nM.
On to `Cn1nccc1-c1nnc(N2CCC(NC(=O)OC(C)(C)C)CC2)c2ccccc12` [Example 66, tert-butyl N-[1-[4-(2-methylpyrazol-3-yl)phthalazin-1-yl]-4-piperidyl]carbamate], for which the IC50 is 10 to 200 nM.
On to `COc1ccc(CNC2CCN(c3nnc(-c4ccnn4C)c4ccccc34)CC2)cc1` [Example 71, N-[(4-methoxyphenyl)methyl]-1-[4-(2-methylpyrazol-3-yl)phthalazin-1-yl]piperidin-4-amine], for which the IC50 lay in the range of 200 to 2000 nM.
For `Cn1nccc1-c1nnc(N2CCC(NCc3ccc(F)cc3Cl)CC2)c2ccccc12` [Example 19, N-[(2-chloro-4-fluoro-phenyl)methyl]-1-[4-(2-methylpyrazol-3-yl)phthalazin-1-yl]piperidin-4-amine], the IC50 was in the range of 10 to 200 nM.
`Cn1nccc1-c1nnc(N2CCC(NC(=O)Nc3ccccc3C(F)(F)F)CC2)c2ccccc12` [Example 21, 1-[1-[4-(2-methylpyrazol-3-yl)phthalazin-1-yl]-4-piperidyl]-3-[2-(trifluoromethyl)phenyl]urea]: the IC50 is under 10 nM.

Staying with this assay, now noted: NIH3T3; Gli-reporter NIH-3T3 cells, recombinant mouse sonic hedgehog, 24 hours, luminescence; read-out: Gli Luc nM (IC50).
Turning to `Cn1nccc1-c1nnc(N2CCC(NC(=O)Nc3ccc(C(F)(F)F)cc3)CC2)c2ccccc12` [Example 14, 1-[1-[4-(2-methylpyrazol-3-yl)phthalazin-1-yl]-4-piperidyl]-3-[4-(trifluoromethyl)phenyl]urea], the IC50 came out at 0.71 nM.

The same assay, now with this note: NIH3T3; Gli-reporter NIH-3T3 cells, recombinant mouse sonic hedgehog, 24 hours, luminescence; read-out: Gli luc IC50.
Turning to `Cn1nccc1-c1nnc(N2CCC(Nc3ccc(F)cc3C(F)(F)F)CC2)c2c1CCC2` [Example 142, N-[4-fluoro-2-(trifluoromethyl)phenyl]-1-[1-(2-methylpyrazol-3-yl)-6,7-dihydro-5H-cyclopenta[d]pyridazin-4-yl]piperidin-4-amine], the concentration for half-maximal inhibition (IC50) is 10 to 200 nM.
For the compound `CN(C(=O)Nc1ccc(F)cc1C(F)(F)F)C1CCN(c2nnc(-c3ccnn3C)c3ncccc23)CC1` [Example 80, 3-[4-fluoro-2-(trifluoromethyl)phenyl]-1-methyl-1-[1-[8-(2-methylpyrazol-3-yl)pyrido[2,3-d]pyridazin-5-yl]-4-piperidyl]urea], the half-maximal inhibitory concentration (IC50) was under 10 nM.
On the same count and under the same terms, the same measure for `Cn1nccc1-c1nnc(N2CCC(NC(=O)NC3(C(F)(F)F)CC3)CC2)c2ccccc12` [Example 109, 1-[1-[4-(2-methylpyrazol-3-yl)phthalazin-1-yl]-4-piperidyl]-3-[1-(trifluoromethyl)cyclopropyl]urea]: 10 to 200 nM; for `CN(C1CCN(c2nnc(-c3ccnn3C)c3cccnc23)CC1)S(=O)(=O)c1ccc(F)cc1C(F)(F)F` [Example 134, 4-fluoro-N-methyl-N-[1-[5-(2-methylpyrazol-3-yl)pyrido[2,3-d]pyridazin-8-yl]-4-piperidyl]-2-(trifluoromethyl)benzenesulfonamide]: 10 to 200 nM; for `CN(C1CCN(c2nnc(-c3ccnn3C)c3ccncc23)CC1)S(=O)(=O)c1ccc(F)cc1C(F)(F)F` [Example 103, 4-fluoro-N-methyl-N-[1-[1-(2-methylpyrazol-3-yl)pyrido[3,4-d]pyridazin-4-yl]-4-piperidyl]-2-(trifluoromethyl)benzenesulfonamide]: 10 to 200 nM.
Same read-out and setting: as for `CN(C(=O)Nc1ccc(F)cc1C(F)(F)F)C1CCN(c2nnc(-c3ccnn3C)c3cccnc23)CC1` [Example 137, 3-[4-fluoro-2-(trifluoromethyl)phenyl]-1-methyl-1-[1-[5-(2-methylpyrazol-3-yl)pyrido[2,3-d]pyridazin-8-yl]-4-piperidyl]urea], the figure is under 10 nM.
The same measure, in the same setting: the same measure for `CN(Cc1ccc(F)cc1Cl)C1CCN(c2nnc(-c3ccnn3C)c3ccccc23)CC1` [Example 158, N-[(2-chloro-4-fluoro-phenyl)methyl]-N-methyl-1-[4-(2-methylpyrazol-3-yl)phthalazin-1-yl]piperidin-4-amine]: 10 to 200 nM.
In the case of `CN(Cc1ccc(F)cc1C(F)(F)F)C1CCN(c2nnc(N3CCOCC3)c3ccccc23)CC1` [Example 144, N-[[4-fluoro-2-(trifluoromethyl)phenyl]methyl]-N-methyl-1-(4-morpholinophthalazin-1-yl)piperidin-4-amine], the 50% inhibitory concentration (IC50) was over 200 nM.
Same read-out and setting: as for `Cn1nccc1-c1nnc(N2CCC(NCc3ccccc3S(C)(=O)=O)CC2)c2ccccc12` [Example 115, 1-[4-(2-methylpyrazol-3-yl)phthalazin-1-yl]-N-[(2-methylsulfonylphenyl)methyl]piperidin-4-amine], the figure is 10 to 200 nM; as for `Cc1c(-c2ccnn2C)nnc(N2CCC(N(C)Cc3cccc(OC(F)(F)F)c3)CC2)c1C` [Example 83, 1-[4,5-dimethyl-6-(2-methylpyrazol-3-yl)pyridazin-3-yl]-N-methyl-N-[[3-(trifluoromethoxy)phenyl]methyl]piperidin-4-amine], 10 to 200 nM.
The same measure, in the same setting: as for `Cc1c(-c2ccnn2C)nnc(N2CCC(N(C)Cc3ccncn3)CC2)c1C` [Example 171, 1-[4,5-dimethyl-6-(2-methylpyrazol-3-yl)pyridazin-3-yl]-N-methyl-N-(pyrimidin-4-ylmethyl)piperidin-4-amine], the figure is over 1000 nM; as for `O=C(Nc1ccc(F)cc1C(F)(F)F)NC1CCN(c2nnc(-c3ccncc3)c3ccncc23)CC1` [Example 99, 1-[4-fluoro-2-(trifluoromethyl)phenyl]-3-[1-[1-(4-pyridyl)pyrido[3,4-d]pyridazin-4-yl]-4-piperidyl]urea], under 10 nM; as for `CN(C(=O)Nc1ccc(F)cc1F)C1CCN(c2nnc(-c3ccnn3C)c3ncccc23)CC1` [Example 101, 3-(2,4-difluorophenyl)-1-methyl-1-[1-[8-(2-methylpyrazol-3-yl)pyrido[2,3-d]pyridazin-5-yl]-4-piperidyl]urea], over 200 nM.
On the same count and under the same terms, as for `CN(Cc1ccc(F)cc1C(F)(F)F)CC1CCN(c2nnc(-c3ccnn3C)c3ccccc23)C1` (stereo not drawn) [Example 139, 1-[4-fluoro-2-(trifluoromethyl)phenyl]-N-methyl-N-[[1-[4-(2-methylpyrazol-3-yl)phthalazin-1-yl]pyrrolidin-3-yl]methyl]methanamine], the figure is 10 to 200 nM.
As for `CN(C(=O)NC(C)(C)C)C1CCN(c2nnc(-c3ccnn3C)c3c2CCC3)CC1` [Example 133, 3-tert-butyl-1-methyl-1-[1-[1-(2-methylpyrazol-3-yl)-6,7-dihydro-5H-cyclopenta[d]pyridazin-4-yl]-4-piperidyl]urea], the half-inhibitory concentration (IC50) lay within 10 to 200 nM.
Still for that read-out and setting: the same measure for `Cn1nccc1-c1nnc(N2CCC(NC(=O)Nc3ccc(OC(F)(F)F)cc3)CC2)c2ccccc12` [Example 167, 1-[1-[4-(2-methylpyrazol-3-yl)phthalazin-1-yl]-4-piperidyl]-3-[4-(trifluoromethoxy)phenyl]urea]: under 10 nM; for `CN(C(=O)Nc1ccc(F)cc1C(F)(F)F)C1CCN(c2nnc(-c3ccnn3C)c3c2CCC3)CC1` [Example 125, 3-[4-fluoro-2-(trifluoromethyl)phenyl]-1-methyl-1-[1-[1-(2-methylpyrazol-3-yl)-6,7-dihydro-5H-cyclopenta[d]pyridazin-4-yl]-4-piperidyl]urea]: under 10 nM; for `Cc1c(-c2ccnn2C)nnc(N2CCC(N(C)Cc3ccccc3[N+](=O)[O-])CC2)c1C` [Example 81, 1-[4,5-dimethyl-6-(2-methylpyrazol-3-yl)pyridazin-3-yl]-N-methyl-N-[(2-nitrophenyl)methyl]piperidin-4-amine]: under 10 nM.
For the compound `Cn1nccc1-c1nnc(N2CCC(NC(=O)Nc3ccc(F)cc3C(F)(F)F)CC2)c2cnccc12` [Example 105, 1-[4-fluoro-2-(trifluoromethyl)phenyl]-3-[1-[1-(2-methylpyrazol-3-yl)pyrido[3,4-d]pyridazin-4-yl]-4-piperidyl]urea], the 50% inhibitory concentration (IC50) is under 10 nM.
Take `CN(Cc1ccc(F)cc1C(F)(F)F)C1CCN(c2nnc(-c3cnccn3)c3ccccc23)CC1` [Example 153, N-[[4-fluoro-2-(trifluoromethyl)phenyl]methyl]-N-methyl-1-(4-pyrazin-2-ylphthalazin-1-yl)piperidin-4-amine]: the IC50 was over 200 nM.
The same measure, in the same setting: the same measure for `Cc1c(-c2ccnn2C)nnc(N2CCC(N(C)C(=O)NC(C)(C)C)CC2)c1C` [Example 152, 3-tert-butyl-1-[1-[4,5-dimethyl-6-(2-methylpyrazol-3-yl)pyridazin-3-yl]-4-piperidyl]-1-methyl-urea]: over 200 nM.

Values taken from patent US9579319B2 (Redx Pharma PLC, priority 2013, dated 2017).
